Marks after values point to notes of the source that are not given here.
Columns and labels:
[1] = system: Candida albicans strains 1-1, 3-1 and 4-1; experiment: Anti-fungal/yeast microplate assay (MIC, resazurin); assay type: cell-based
Protocol: (§1) The three strains of Candida albicans (C. albicans) used: 1-1, 3-1 and 4-1 were isolated from human blood, vagina and oropharynx, respectively. Cryptococcus neoformans (C. neoformans) strain CCTP13 was used. All strains were cultured in RPMI-1640 medium at 37° C. The copper sulfate and Cu# compositions started at a high concentration of 200 micrograms/milliliter, whilst the Cu—Zn# compositions started at a high concentrations of 1% of the stock solution (Table 2) and zinc sulfate and phosphorous acid started with a high concentrations equivalent to those in Cu—Zn#7 and #10 (see the legend of Table 1 for details) doubling dilutions (100 microliters) of the compositions were prepared in RPMI-1640 in a 96-well tissue culture plate. Overnight C. albicans and C. neoformans cultures were diluted 1:40 and 1:10 respectively with fresh RPMI containing 40 mM MOPS buffer and 90 microliters was added to the compositions in the plate. Resazurin A (10 microliters of a 0.0675% wt/vol solution in distilled water) was added as an indicator of growth, and the cultures were incubated at 37° C. for 24 hr. The minimum inhibitory concentration (MIC) of the compounds/compositions was defined as the lowest concentration at which the resazurin A indicator remained blue (living cells convert the blue dye to a pink color).

[2] = system: Staphylococcus aureus strain (S1); experiment: Agar plate test for antibacterial effect, area of inhibition; assay type: cell-based
Protocol: (§2) A 0.2 milliliter sample of the P. acnes culture was spread onto a 9 centimeter Petri dish containing BHI agar and allowed to dry.
(§3) The composition to be tested was either diluted with distilled water and 5 microliters was placed onto a 5 millimeter filter paper disc or was added to the Aloe vera-based gel (without preservatives) described above at various concentrations and a 5 microliter drop was placed onto the agar surface. The plates were then incubated at 37° C. for 24 hours (under anaerobic conditions for P. acnes), when the zones of inhibition (ZoI) were measured in millimeters) twice at a […] angle using a ruler and the average diameter (D) was calculated. The area of inhibition in mm^2 (AoI) was calculated using the formula: AoI=π×(D/2)^2.

[3] = system: Propionibacterium acnes strain ATCC 11828 (P. acnes); experiment: Agar plate test for antibacterial effect, zone of inhibition; assay type: cell-based; conditions: stock diluted 1:200 in distilled water (200 microgram/milliliter elemental copper for Cu# and copper sulfate), BHI agar, 24 hours anaerobic
Protocol: as §2, §3

[4] = pH of stock solutions and gel formulation; assay type: physicochemical; conditions: stock solution
[5] = system: P. acnes; experiment: Bacterial microplate cultures (MIC); assay type: cell-based, Propionibacterium acnes
Protocol: (§4) The aerobic bacterial strains Acinetobacter baumannii (A. baumannii), methicillin-resistant Staphylococcus aureus (MRSA) and Klebsiella pneumonia (K. pneumoniae) were isolated from swabs taken in a hospital ward. Escherichia coli (NCTC 9001; E. coli) is a clinical isolate from a patient's urinary bladder; all strains were cultured in RPMI-1640. Stock solutions of the compounds/compositions to be tested were diluted so that double dilutions in the microplate assays commenced at a 1% vol/vol concentration. Double dilutions of the compositions to be tested were prepared in RPMI-1640 in a 96-well tissue culture plate. The bacterial cultures were diluted 1:40 with fresh RPMI and added to the compositions. P. acnes was cultured as described in EXAMPLE 1 (Agar plate test methods) and a sample was diluted 1:100 with fresh BHI. Double dilutions of the compositions to be tested were prepared as described above in distilled water in a 96-well tissue culture plate (100 microliters) and 100 microliters of the diluted P. acnes culture was added. The plates were then incubated at 37° C. for 24 hours (under anaerobic conditions for P. acnes). The minimum inhibitory concentration (MIC) of the compositions was defined as the lowest concentration at which no visible bacterial growth was observed.

[6] = system: Acinetobacter baumannii (A. baumannii); experiment: Bacterial microplate cultures (MIC); assay type: cell-based; conditions: RPMI-1640, 24 hours
Protocol: as §4

[7] = system: Escherichia coli (NCTC 9001; E. coli); experiment: Bacterial microplate cultures (MIC); assay type: cell-based; conditions: RPMI-1640, 24 hours
Protocol: as §4

[8] = system: Klebsiella pneumonia (K. pneumoniae); experiment: Bacterial microplate cultures (MIC); assay type: cell-based; conditions: RPMI-1640, 24 hours
Protocol: as §4

[9] = system: methicillin-resistant Staphylococcus aureus (MRSA); experiment: Bacterial microplate cultures (MIC); assay type: cell-based; conditions: RPMI-1640, 24 hours
Protocol: as §4

[10] = system: Aspergillus niger (A. niger); experiment: Anti-fungal assay with plant pathogenic fungi on PDA; assay type: cell-based
Protocol: (§5) Chalara […] isolate 196/28 ([…]), Aspergillus niger (A. niger) and a strain isolated from powdery mildew (Pm; isolated from an apple leaf) were cultured on potato dextrose agar (PDA) at room temperature (around 22° C.). […] The plate was agitated to evenly distribute the test composition evenly through the agar (distilled water alone was used as control) and then the agar was allowed to set. […] To assess the effects of compositions on fungal growth, the diameter of the fungal hyphae was measured twice at a 90° angle using a ruler and the average diameter in millimeters was calculated. If no fungal growth could be detected by eye, the cultures were observed by phase microscopy (40×) to confirm that there was no growth (NG) as judged by visual examination.

[11] = system: Chalara fraxinea isolate 196/28 (C. fraxinea); experiment: as above; assay type: cell-based
Protocol: as §5

[12] = system: strain isolated from powdery mildew (Pm); experiment: as above; assay type: cell-based, powdery mildew (isolated from an apple leaf); conditions: 3 days of culture
Protocol: as §5

[13] = system: Cryptococcus neoformans strain CCTP13; experiment: Anti-fungal/yeast microplate assay (MIC, resazurin); assay type: cell-based; conditions: C. neoformans
Protocol: as §1

[14] = system: A-431; experiment: Cytotoxicity assay with a human squamous epithelial skin cell line (SRB assay); conditions: confluent A-431, 24 hours, SRB (FIG. 4)
Protocol: A-431 (ATCC) was cultured in RPMI-1640 medium supplemented with 10% fetal bovine serum and 2 mM L-glutamine (complete medium) in a humidified incubator at 37′C with a 5% CO2 in air atmosphere. For cytotoxicity experiments the cells were trypsinized, washed, counted and 2×10^4 cells were plated into the wells of flat-bottom 96-well plates in complete medium and cultured for 3 days until a confluent monolayer was formed. […] All test products were diluted in complete medium and then added in triplicate to the confluent A-431 cells which were then cultured for a further 24 hours when cytotoxicity/cell survival was quantitatively assessed using the sulforhodamine B (SRB) assay as described below.
The cells were washed twice with RPMI-1640 medium and then fixed with 10% trichloroacetic acid for 1 hour at 4° C. After washing twice with tap water, the cells were stained with SRB (0.4% w/v SRB in 1% acetic acid) for 30 min at room temperature. After washing twice with tap water the remaining stain was dissolved in 10 mM Tris base and the absorbance of the wells was measured on a Dynatech Multiplate ELISA reader at 540 nm. Percent cell survival was calculated by dividing the test product absorbance by control absorbance and multiplying by 100.

[15] = C. albicans strain 1-1, copper-free controls, concentration of zinc sulfate or phosphorous acid
[16] = C. albicans strain 3-1, copper-free controls, concentration of zinc sulfate or phosphorous acid
[17] = C. albicans strain 4-1, copper-free controls, concentration of zinc sulfate or phosphorous acid
[18] = Experiment #1, 24 hours anaerobic

## OP(O)O [Composition H3PO3, phosphorous acid]
[1]; [15]
  MIC: >500 µg/mL
[1]; [16]
  MIC: >500 µg/mL
[1]; [17]
  MIC: >500 µg/mL
[1]; C. albicans strains
  MIC: > 500 micrograms/milliliter

## O=S(=O)([O-])[O-].[Cu+2] [Copper sulfate, copper sulfate]
[2]; dissolved in gel, 800 micrograms/milliliter, TSA, 24 hours (FIG. 1)
  Area of inhibition (AoI): 28 mm^2
[3]
  Zone of Inhibition (mm): 13 mm
[4]
  pH of stock solutions: 3.4
[5]; [18]
  MIC: 100 µg/mL
[5]; Experiment #2, 24 hours anaerobic
  MIC: 200 µg/mL
[6]
  MIC: 6.3 microgram/milliliter
[7]
  MIC: 100 microgram/milliliter
[8]
  MIC: 50 microgram/milliliter
[9]
  MIC: 12.5 microgram/milliliter
[10]; 12.5 μg/ml, Day 4
  Diameter of fungal growth (mm): 15 mm
[10]; 12.5 μg/ml, Day 7
  Diameter of fungal growth (mm): 17 mm
[10]; 12.5 μg/ml, Day 11
  Diameter of fungal growth (mm): 18 mm
[10]; 37.5 μg/ml, Day 4
  Diameter of fungal growth (mm): 13 mm
[10]; 37.5 μg/ml, Day 7
  Diameter of fungal growth (mm): 16 mm
[10]; 37.5 μg/ml, Day 11
  Diameter of fungal growth (mm): 18 mm
[10]; 125 μg/ml, Day 4, NG = no growth by phase microscopy
  Diameter of fungal growth (mm): 7 mm
[10]; 125 μg/ml, Day 7, NG = no growth
  Diameter of fungal growth (mm): 10 mm
[10]; 125 μg/ml, Day 11, NG = no growth
  Diameter of fungal growth (mm): 15 mm
[11]; 3.75 μg/ml, Day 7
  Diameter of fungal growth (mm): 14 mm
[11]; 3.75 μg/ml, Day 15
  Diameter of fungal growth (mm): 20 mm
[11]; 12.5 μg/ml, Day 7
  Diameter of fungal growth (mm): 14 mm
[11]; 12.5 μg/ml, Day 15
  Diameter of fungal growth (mm): 20 mm
[11]; 37.5 μg/ml, Day 7
  Diameter of fungal growth (mm): 13 mm
[11]; 37.5 μg/ml, Day 15, 20 mm = confluent
  Diameter of fungal growth (mm): 20** mm
[11]; 125 μg/ml, Day 7
  Diameter of fungal growth (mm): 10 mm
[11]; 125 μg/ml, Day 15
  Diameter of fungal growth (mm): 18 mm
[12]; 12.5 μg/ml
  Diameter of fungal growth (mm): 17 mm
[12]; 37.5 μg/ml
  Diameter of fungal growth (mm): 17 mm
[12]; 125 μg/ml
  Diameter of fungal growth (mm): 13 mm
[12]; 375 μg/ml, NG = no growth
  Diameter of fungal growth (mm): 3* mm
[1]; C. albicans strain 1-1, 24 hr
  MIC (μg/ml Cu^2+): 6.3 μg/ml Cu^2+
[1]; C. albicans strain 3-1, 24 hr
  MIC (μg/ml Cu^2+): 6.3 μg/ml Cu^2+
[1]; C. albicans strain 4-1, 24 hr
  MIC (μg/ml Cu^2+): 6.3 μg/ml Cu^2+
[13]; 24 hr
  MIC (μg/ml Cu^2+): 6.3 μg/ml Cu^2+
[14]
  50% cytotoxic concentrations (CC50): 50 micrograms/milliliter

## O=S(=O)([O-])[O-].[Zn+2] [Zinc sulfate, zinc sulfate]
[2]; alone in gel, 50-200 micrograms/milliliter (FIG. 2)
  effect on the growth of S1 (S. aureus): no effect
[2]; in gel, 100 micrograms/milliliter (FIG. 3)
  effect on the growth of S1 (S. aureus): no effect
[5]; [18]
  MIC: 25 µg/mL
[5]; Table 5 experiment, varying Cu:Zn ratios
  MIC: 50 µg/mL
[1]; [15]
  MIC: >150 µg/mL
[1]; [16]
  MIC: >150 µg/mL
[1]; [17]
  MIC: >150 µg/mL
[1]; C. albicans strains
  MIC: > 150 micrograms/milliliter
[13]; copper-free control, concentration of zinc sulfate
  MIC: >150 µg/mL

Reference: patent US9474282B2, “Acid-solubilized copper-ammonium complexes and copper-zinc-ammonium complexes, compositions, preparations, methods, and uses” (priority 2013, dated 2016)
